Assay results as given in ChEMBL document CHEMBL3856236, “Discovery of 6-Diazo-5-oxo-l-norleucine (DON) Prodrugs with Enhanced CSF Delivery in Monkeys: A Potential Treatment for Glioblastoma” (J Med Chem, 2016).
Active and inactive are the calls of the source. The calls are words filed in the database; no cut-off is given here.

What was measured:
[1] = Metabolic stability in monkey plasma assessed as compound remaining at 10 uM at 60 mins by LC-MS/MS analysis; assay type: ADME, cell-free, Macaca mulatta; conditions: rhesus monkey, read-out: Stability
[2] = Chemical stability of the compound at 10 uM at pH 7.4 after 1 hr by LC-MS/MS analysis; assay type: physicochemical; conditions: buffer; for remaining at 1 h, 10 µM: pH 7.4, read-out: Stability; for Stability: pH 7.4, 1 h, 10 µM
[3] = Metabolic stability in mouse plasma assessed as compound remaining at 10 uM at 60 mins by LC-MS/MS analysis; assay type: ADME, cell-free; conditions: read-out: Stability
[4] = Metabolic stability in human plasma assessed as compound remaining at 10 uM at 60 mins by LC-MS/MS analysis; assay type: ADME, cell-free; conditions: read-out: Stability
[5] = Drug uptake in pig-tail monkey CSF at 1.6 mg/kg, iv measured at 30 mins post dose by LC-MS analysis; assay type: ADME, organism-based, Cerebrospinal fluid; conditions: macaca nemestrina, in vivo, 0.5 h
Mus musculus [6] = assay: Toxicity in RHFoxn1nu mouse xenografted with human U87 cells assessed as ptosis at 0.8 mg/kg, ip qd for 6 days; assay type: organism-based, U-87MG ATCC; conditions: in vivo, 144 h
[7] = Ratio of drug level in C57BL/6 mouse brain to plasma at 0.8 mg/kg administered via oral gavage; assay type: ADME, organism-based; conditions: read-out: BPR
[8] = Cmax in pig-tail monkey plasma at 1.6 mg/kg, iv by LC-MS analysis; assay type: ADME, organism-based; design: dose 1.6 mg/kg, route intravenous; conditions: macaca nemestrina
Mus musculus [9] = assay: Toxicity in RHFoxn1nu mouse xenografted with human U87 cells assessed as hunching at 0.8 mg/kg, ip qd for 6 days; assay type: organism-based, U-87MG ATCC; conditions: in vivo, 144 h
Mus musculus [10] = assay: Toxicity in RHFoxn1nu mouse xenografted with human U87 cells assessed as lethargy at 0.8 mg/kg, ip qd for 6 days; assay type: organism-based, U-87MG ATCC; conditions: in vivo, 144 h
[11] = Cmax in C57BL/6 mouse brain at 0.8 mg/kg administered via oral gavage by LC-MS analysis; assay type: ADME, organism-based; design: dose 0.8 mg/kg, route oral; conditions: in vivo
[12] = Antitumor activity against human U87 cells xenografted in RHFoxn1nu mouse assessed as tumor volume at 0.8 mg/kg, ip qd for 6 days measured on day 6 post dose (reference value: 533 mm3); assay type: functional, U-87MG ATCC
[13] = Antitumor activity against human U87 cells xenografted in RHFoxn1nu mouse assessed as tumor volume at 0.8 mg/kg, ip qd for 6 days measured immediately post dose (reference value: 409 mm3); assay type: functional, U-87MG ATCC
[14] = Antitumor activity against human U87 cells xenografted in RHFoxn1nu mouse assessed as reduction in tumor volume at 0.8 mg/kg, ip qd for 6 days measured 2 to 6 days post dose; assay type: functional, U-87MG ATCC; conditions: U-87 MG
[15] = Antitumor activity against human U87 cells xenografted in RHFoxn1nu mouse assessed as tumor volume at 0.8 mg/kg, ip qd for 6 days measured on day 2 post dose (reference value: 401 mm3); assay type: functional, U-87MG ATCC
[16] = Antitumor activity against human U87 cells xenografted in RHFoxn1nu mouse assessed as tumor volume at 0.8 mg/kg, ip qd for 6 days measured on day 4 post dose (reference value: 454 mm3); assay type: functional, U-87MG ATCC
[17] = Tmax in C57BL/6 mouse plasma at 0.8 mg/kg administered via oral gavage by LC-MS analysis; assay type: ADME, organism-based
[18] = Cmax in C57BL/6 mouse plasma at 0.8 mg/kg administered via oral gavage by LC-MS analysis; assay type: ADME, organism-based; design: dose 0.8 mg/kg, route oral
in vivo [19] = conditions: macaca nemestrina, plasma, iv, 1.6 mg/kg
Description: AUC (0 to t) in pig-tail monkey plasma at 1.6 mg/kg, iv measured at 0.25 to 6 hrs post dose by LC-MS analysis

Mus musculus [20] = assay: Toxicity in RHFoxn1nu mouse xenografted with human U87 cells assessed as weight loss at 0.8 mg/kg, ip qd for 6 days; assay type: organism-based, U-87MG ATCC; conditions: in vivo, 144 h
Mus musculus [21] = assay: In vivo inhibition of glutamine metabolism in RHFoxn1nu mouse xenografted with human U87 cells assessed as accumulation of endogenous glutamine in tumor at 0.8 mg/kg, ip administered as single dose measured after 2 hrs by HPLC-MS analysis; assay type: functional, organism-based; conditions: U-87MG ATCC
in vivo [22] = conditions: C57BL/6, mouse, plasma, po, 0.8 mg/kg
Description: AUC (0 to t) in C57BL/6 mouse plasma at 0.8 mg/kg administered via oral gavage measured at 10 to 90 mins post dose by LC-MS analysis

[23] = Cmax in pig-tail monkey plasma assessed as 6-Diazo-5-oxo-L-norleucine levels at 3.6 mg/kg, iv by LC-MS analysis; assay type: ADME, organism-based; design: dose 3.6 mg/kg, route intravenous; conditions: macaca nemestrina, in vivo
[24] = AUC (0 to t) in C57BL/6 mouse plasma assessed as 6-Diazo-5-oxo-L-norleucine levels at 1.8 mg/kg administered via oral gavage measured at 10 to 90 mins post dose by LC-MS analysis; assay type: ADME, organism-based; conditions: in vivo
[25] = Ratio of drug level in C57BL/6 mouse brain to plasma assessed as 6-Diazo-5-oxo-L-norleucine levels at 1.8 mg/kg administered via oral gavage; assay type: ADME, organism-based
[26] = Tmax in pig-tail monkey plasma assessed as 6-Diazo-5-oxo-L-norleucine levels at 3.6 mg/kg, iv by LC-MS analysis; assay type: ADME, organism-based; conditions: macaca nemestrina, in vivo
[27] = AUC (0 to t) in pig-tail monkey plasma assessed as 6-Diazo-5-oxo-L-norleucine levels at 3.6 mg/kg, iv measured at 0.25 to 6 hrs post dose by LC-MS analysis; assay type: ADME, organism-based; design: time upper 6 hr, dose 3.6 mg/kg, time lower 0.25 hr, route intravenous; conditions: macaca nemestrina, in vivo
[28] = Cmax in C57BL/6 mouse brain assessed as 6-Diazo-5-oxo-L-norleucine levels at 1.8 mg/kg administered via oral gavage by LC-MS analysis; assay type: ADME, organism-based; design: dose 1.8 mg/kg, route oral; conditions: in vivo
[29] = AUC (0 to t) in C57BL/6 mouse brain assessed as 6-Diazo-5-oxo-L-norleucine levels at 1.8 mg/kg administered via oral gavage measured at 10 to 90 mins post dose by LC-MS analysis; assay type: ADME, organism-based; conditions: in vivo
[30] = Tmax in C57BL/6 mouse plasma assessed as 6-Diazo-5-oxo-L-norleucine levels at 1.8 mg/kg administered via oral gavage by LC-MS analysis; assay type: ADME, organism-based; conditions: in vivo
[31] = Cmax in C57BL/6 mouse plasma assessed as 6-Diazo-5-oxo-L-norleucine levels at 1.8 mg/kg administered via oral gavage by LC-MS analysis; assay type: ADME, organism-based; design: dose 1.8 mg/kg, route oral; conditions: in vivo
[32] = Prodrug activation in pig-tail monkey CSF assessed as 6-Diazo-5-oxo-L-norleucine levels at 3.6 mg/kg, iv measured at 30 mins post dose by LC-MS analysis; assay type: organism-based, Cerebrospinal fluid; conditions: macaca nemestrina, in vivo, 0.5 h

In the case of `Cc1oc(=O)oc1COC(=O)N[C@@H](CCC(=O)C=[N+]=[N-])C(=O)OC(C)C`, the remaining at 1 h, 10 µM [1] is reported as 0%, the remaining at 1 h, 10 µM [2] is reported as > 90% and the remaining at 1 h, 10 µM [3] is reported as 0%. It also gave a remaining at 1 h, 10 µM [4] of 0%.
With `CC(C)C[C@H](N)C(=O)N[C@@H](CCC(=O)C=[N+]=[N-])C(=O)OC(C)C` the remaining at 1 h, 10 µM [1] was 1%, the remaining at 1 h, 10 µM [2] was > 90% and the remaining at 1 h, 10 µM [3] was 0%. The remaining at 1 h, 10 µM [4] was 1%.
With `CCOC(=O)[C@H](CCC(=O)C=[N+]=[N-])NC(=O)OCc1oc(=O)oc1C` the remaining at 1 h, 10 µM [1] was 0%, the remaining at 1 h, 10 µM [2] was > 90% and the remaining at 1 h, 10 µM [3] was 0%. It also gave a remaining at 1 h, 10 µM [4] of 0%.
With `CCOC(=O)[C@H](CCC(=O)C=[N+]=[N-])NC(=O)[C@@H](N)CC(C)C` the remaining at 1 h, 10 µM [1] was 1%, the remaining at 1 h, 10 µM [2] was > 90% and the remaining at 1 h, 10 µM [3] was 0%. For the same compound, the remaining at 1 h, 10 µM [4] was 1%.
In the case of `CCC(OC(=O)N[C@@H](CCC(=O)C=[N+]=[N-])C(=O)OC)OC(=O)C(C)(C)C` (stereo partly drawn), the remaining at 1 h, 10 µM [1] is reported as 75%, the remaining at 1 h, 10 µM [2] is reported as > 90% and the remaining at 1 h, 10 µM [3] is reported as 0%. For the same compound, the remaining at 1 h, 10 µM [4] was 88%.
With `CC(C)OC(=O)[C@@H](N)CCC(=O)C=[N+]=[N-]` the Stability [2] was “Unstable”.
In the case of `CCOC(=O)[C@@H](N)CCC(=O)C=[N+]=[N-]`, the Stability [2] is reported as “Unstable”.
In the case of `[N-]=[N+]=CC(=O)CC[C@H](N)C(=O)O` [6-DIAZO-5-OXO-L-NORLEUCINE], the Drug uptake [5] is reported as 0.33 nmol/g, the Activity (Mus musculus [6]) is reported as “Toxic” and the Kp [7] is reported as 0.46. The Cmax [8] was 12600 nM, the Activity (Mus musculus [9]) was “Toxic” and the Activity (Mus musculus [10]) was “Toxic”. For the same compound, the Cmax [11] was 0.56 nmol/g, the Activity [12] was 251 mm3 and the Activity [13] was 504 mm3. The inhibition in vivo at 0.8 mg/kg [14] was > 50%, the Activity [15] was 364 mm3 and the Activity [16] was 256 mm3. The Tmax [17] was 10.2 min, the Cmax [18] was 2200 nM and the AUC(0-t) (in vivo [19]) was 42.7 µM·h. For the same compound, the Activity (Mus musculus [20]) was 12%, the inhibition (Mus musculus [21]) was “Active” and the AUC(0-t) (in vivo [22]) was 1.25 µM·h.
Compound `COC(=O)[C@H](CCC(=O)C=[N+]=[N-])NC(=O)OC(OC(=O)C(C)(C)C)C(C)C` (stereo partly drawn) has a Cmax [23] of 2230 nM, an AUCt [24] of 1.22 µM·h and a BPR [25] of 0.57. It also gave a Tmax [26] of 15 min, an AUCt [27] of 5.71 µM·h and a Cmax [28] of 0.64 nmol/g. It also gave an AUCt [29] of 0.69 nmol·h/g, a remaining at 1 h, 10 µM [1] of 61% and a Tmax [30] of 90 min. The remaining at 1 h, 10 µM [2] was > 90%, the remaining at 1 h, 10 µM [3] was 0% and the Cmax [31] was 1500 nM. The remaining at 1 h, 10 µM [4] was 91% and the Drug metabolism [32] was 1.43 nmol/g.
In the case of `CC(C)OC(=O)[C@H](CCC(=O)C=[N+]=[N-])NC(=O)OCOC(=O)C(C)(C)C`, the remaining at 1 h, 10 µM [1] is reported as 0%, the remaining at 1 h, 10 µM [2] is reported as > 90% and the remaining at 1 h, 10 µM [3] is reported as 0%. It also gave a remaining at 1 h, 10 µM [4] of 9%.
